These results are taken from article PMC4684214, “Timberol® Inhibits TAAR5-Mediated Responses to Trimethylamine and Influences the Olfactory Threshold in Humans” (PLoS ONE, 2015).

Each structure is given as a SMILES string.

For the experiment, the target named is T1, hOR51E1 (Homo sapiens, UniProt Q8TCB6).
T1 construct: gene OR51E1; recombinant receptor plasmid transfected in HANA3A cells; with G-alpha-olf, RTP1S and M3 muscarinic receptor
T1 sequence (Q8TCB6 1-318): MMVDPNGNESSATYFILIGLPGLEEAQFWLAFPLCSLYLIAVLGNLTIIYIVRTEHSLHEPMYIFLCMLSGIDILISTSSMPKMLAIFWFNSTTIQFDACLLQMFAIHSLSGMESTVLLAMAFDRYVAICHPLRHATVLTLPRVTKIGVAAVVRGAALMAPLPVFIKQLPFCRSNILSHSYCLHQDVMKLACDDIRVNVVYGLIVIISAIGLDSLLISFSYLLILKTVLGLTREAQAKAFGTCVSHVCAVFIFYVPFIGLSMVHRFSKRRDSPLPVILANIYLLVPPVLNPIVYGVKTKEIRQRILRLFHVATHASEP
As to the kind of experiment: Cre-luciferase reporter gene assay (cAMP). The class given is cell-based. The settings on record: agonist; M3 muscarinic receptor co-expressed; 37°C, 4 h. The text has this:
Cre-luciferase reporter gene assay (cAMP) on hOR51E1 | (B) nonanoic acid and hOR51E1

`CCCCCCCCC(=O)O` [nonanoic acid] displayed an EC50 of 103 ± 23.1 µM.
